Reference: US9789072B2, “Therapeutic agents for use in the propylaxis and/or treatment of hyperkinetic movement disorders” (SOM INNOVATION BIOTECH, S.L., priority 2013, dated 2017)
Read-outs that look alike come from different tables or passages of the source.

Target: T1, VMAT2 (Rattus norvegicus, UniProt Q01827)
T1 construct: the VMAT2 present in isolated cerebral cortical vesicles; from tissue; host or cells: rat cerebral cortex, synaptic vesicles purified by differential centrifugation
Experiment: VMAT2 functional assay ([3H]-dopamine uptake into isolated vesicles)
Format: biochemical
Conditions: rat cortical vesicles, [3H]-dopamine 30 nM, 30 min pre-incubation, 15 min uptake, room temperature
Method: VMAT2 Functional Assay determines the interaction between the compounds of the present invention and the VMAT2 present in isolated cerebral cortical vesicles.
Transporter Source: Rat cortical vesicles
Buffers: 100 mM potassium tartrate, 1.7 mM ascorbic acid, 0.05 mM EGTA, 0.1 mM EDTA, 2 mM Magnesium-ATP and 25 mM HEPES.
RadioLigand: • Monoamine: [3H]-Dopamine • Final ligand concentration: 30 nM
Vmax (transport rate): 1800 fmol/mg tissue/min
Positive reference-control: • Reserpine • Concentration: 10 μM
(1) Rat cortical vesicles were purified using differential centrifugation, and the vesicles obtained were diluted in the assay buffer and pre-incubated with the positive-reference-control, the comparative sample or a compound of the invention for 30 minutes at room temperature.
(2) Uptake begins with the addition of [3H]-dopamine and the mixture is allowed to incubate for 15 minutes at room temperature.
(3) After that time, the reaction was stopped by vacuum filtration, and the amount of radioactivity of the radiolabeled [3H]-dopamine trapped onto the filters was determined.
(4) The radioactivity of the [3H]-dopamine trapped was determined using liquid scintillation spectrophotometry (Beckman and Perkin Elmer). The amount of radioactivity obtained with the comparative sample or a compound of the invention was compared with the amount of radioactivity obtained with the positive-reference control (reserpine).
The IC50 value is converted to an absolute inhibition constant Ki using the Cheng-Prusoff equation. Two separate independent experiments were performed.

[1] = Experiment 1, read-out: IC50 (nM) Experiment 1

T1 sequence (Q01827 whole entry): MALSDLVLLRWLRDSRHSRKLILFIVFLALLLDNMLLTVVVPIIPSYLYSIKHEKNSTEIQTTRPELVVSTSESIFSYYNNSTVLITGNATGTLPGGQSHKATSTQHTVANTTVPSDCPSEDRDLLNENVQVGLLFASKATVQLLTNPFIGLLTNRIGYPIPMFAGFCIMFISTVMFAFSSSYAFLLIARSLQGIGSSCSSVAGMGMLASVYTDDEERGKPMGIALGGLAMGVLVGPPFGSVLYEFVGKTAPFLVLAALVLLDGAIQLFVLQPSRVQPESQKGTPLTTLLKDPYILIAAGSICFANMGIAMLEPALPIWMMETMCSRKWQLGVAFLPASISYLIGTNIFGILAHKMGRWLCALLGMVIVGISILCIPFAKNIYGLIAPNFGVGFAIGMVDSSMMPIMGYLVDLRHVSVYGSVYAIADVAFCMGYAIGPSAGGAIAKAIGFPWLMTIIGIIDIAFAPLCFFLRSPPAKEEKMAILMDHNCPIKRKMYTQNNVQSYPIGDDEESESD

SMILES | IC50 [1] | IC50 (Experiment 2, read-out: IC50 (nM) Experiment 2)
C[C@@H](NCCCc1cccc(C(F)(F)F)c1)c1cccc2ccccc12 [Cinacalcet (IB)] | 44.6 nM | –
COc1ccc(CCNCC(O)COc2cccc(C)c2)cc1OC (racemic) [Bevantolol (IA), (RS)-[2-(3,4-dimethoxyphenyl)ethyl][2-hydroxy-3-(3-methylphenoxy)propyl]amine] | 42.8 nM | 63 nM
CC(COc1ccccc1)N(CCCl)Cc1ccccc1 (racemic) [Phenoxybenzamine (IC), (RS)—N-benzil-N-(2-chloroetyl)-1-phenoxy-propan-2-amine] | 58.1 nM | –
